The structures appear in SMILES notation.

In this experiment the target is T1, Fad35R (Mycobacterium tuberculosis, UniProt O06169).
T1 construct: gene Rv2506
T1 sequence (O06169 entry or part of it): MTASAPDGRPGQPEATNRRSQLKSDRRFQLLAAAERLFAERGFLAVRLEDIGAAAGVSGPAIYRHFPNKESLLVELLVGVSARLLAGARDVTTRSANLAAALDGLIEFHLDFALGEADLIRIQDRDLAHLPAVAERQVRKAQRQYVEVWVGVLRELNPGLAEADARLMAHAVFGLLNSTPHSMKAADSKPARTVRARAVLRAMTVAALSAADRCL

With `CN(C)[C@@H]1C(=O)C(C(N)=O)=C(O)[C@@]2(O)C(=O)C3=C(O)c4c(O)cccc4[C@@](C)(O)[C@H]3C[C@@H]12` [tetracycline], the “ligand-induced oligomerization: dynamic light scattering, size-exclusion chromat” value is “Tc bound Fad35R has the propensity to form higher oligomers”.

(Values after article PMC4418694, “Crystal Structure of Fad35R from Mycobacterium tuberculosis H37Rv in the Apo-State” (PLoS ONE, 2015).)
